Test results taken from ChEMBL document CHEMBL6074662, “Antibacterial, Antibiofilm, and Anti-inflammatory Effects of a Novel Thrombin-Derived Peptide in Sepsis Models: Insights into Underlying Mechanisms” (J Med Chem, 2024).
Activity calls are given as the source filed them. The calls are words filed in the database; no cut-off is given here.

Tests used:
Staphylococcus aureus [1] = assay: Antibacterial activity against methicillin-resistant Staphylococcus aureus CCARM 3095 incubated for 24 hrs by CLSI based broth microdilution method; assay type: functional
Pseudomonas aeruginosa [2] = assay: Antibacterial activity against multidrug-resistant Pseudomonas aeruginosa CCARM 2109 incubated for 24 hrs by CLSI based broth microdilution method; assay type: functional
Escherichia coli [3] = assay: Antibacterial activity against Escherichia coli KCTC 1682 incubated for 24 hrs in presence of NaCl by CLSI based broth microdilution method; assay type: functional
Escherichia coli [4] = assay: Antibacterial activity against Escherichia coli KCTC 1682 incubated for 24 hrs in presence of MgCl2 by CLSI based broth microdilution method; assay type: functional
Escherichia coli [5] = assay: Antibacterial activity against Escherichia coli KCTC 1682 assessed as zone of clearance incubated for 4 hrs in presence of alpha-chymotrypsin by radical diffusion assay; assay type: functional, organism-based
Escherichia coli [6] = assay: Induction of inner membrane permeabilization in Escherichia coli KCTC 1682 at 0.5 times MIC by PI staining based flow cytometry (reference value: 1.51 %); assay type: functional
Pseudomonas aeruginosa [7] = assay: Synergistic antibacterial activity against multi-drug resistant Pseudomonas aeruginosa CCARM 2095 assessed as fractional inhibitory concentration index by measuring ratio of MIC of Chloramphenicol in presence of compound to MIC to Chloramphenicol incubated for 24 hrs by broth microdilution method; assay type: functional
Pseudomonas aeruginosa [8] = assay: Synergistic antibacterial activity against multi-drug resistant Pseudomonas aeruginosa CCARM 2095 assessed as MIC of Oxacillin incubated for 24 hrs by broth microdilution method; assay type: functional
Pseudomonas aeruginosa [9] = assay: Synergistic antibacterial activity against multi-drug resistant Pseudomonas aeruginosa CCARM 2095 incubated for 24 hrs in presence of Oxacillin by broth microdilution method; assay type: functional
Pseudomonas aeruginosa [10] = assay: Synergistic antibacterial activity against multi-drug resistant Pseudomonas aeruginosa CCARM 2095 assessed as fractional inhibitory concentration index by measuring ratio of MIC of compound in presence of Oxacillin to MIC to compound incubated for 24 hrs by broth microdilution method; assay type: functional
Staphylococcus aureus [11] = assay: Bactericidal activity against methicillin-resistant Staphylococcus aureus CCARM 3089 at 0.5 to 2 uM incubated for 12 hrs by time-kill assay; assay type: functional, organism-based; settings: dose 0.5-2 µM
RAW264.7 [12] = assay: Anti-inflammatory activity in mouse RAW264.7 cells assessed as decrease in LPS-induced TNF-alpha level at 5 uM pretreated for 1 hr followed by LPS treatment for 16 hrs by ELISA relative to control; assay type: functional; settings: time 17 hrs
RAW264.7 [13] = assay: Anti-inflammatory activity in mouse RAW264.7 cells assessed as decrease in LPS-induced IL-6 level at 5 uM pretreated for 1 hr followed by LPS treatment for 16 hrs by ELISA relative to control; assay type: functional; settings: time 17 hrs
[14] = Effect on secondary structure of drug in TFE assessed as formation of left-handed alpha-helical conformation at 150 uM by CD analysis; assay type: physicochemical
[15] = Effect on secondary structure of drug in SDS assessed as formation of left-handed alpha-helical conformation at 150 uM by CD analysis; assay type: physicochemical
Lipopolysaccharide (LPS) [16] = assay: Displacement of BODIPY-TR-cadaverine from Escherichia coli 0111:B4 LPS incubated for 30 mins by fluorescence based assay; settings: dose <= 32.0 µM
Lipopolysaccharide (LPS) [17] = assay: Displacement of BODIPY-TR-cadaverine from cell-free LPS (unknown origin) at 16 uM incubated for 30 mins by fluorescence based assay relative to control
[18] = target: T1, Toll-like receptor 4 (Mus musculus) (UniProt Q9QUK6); assay: Inhibition of LPS-induced TLR4 activation in mouse RAW264.7 cells assessed as decrease in ERK phosphorylation at 2 uM pretreated for 1 hr followed by LPS treatment for 30 mins by Western blot analysis relative to control; assay type: cell-based; settings: time 90.0 min
T1 sequence (whole entry): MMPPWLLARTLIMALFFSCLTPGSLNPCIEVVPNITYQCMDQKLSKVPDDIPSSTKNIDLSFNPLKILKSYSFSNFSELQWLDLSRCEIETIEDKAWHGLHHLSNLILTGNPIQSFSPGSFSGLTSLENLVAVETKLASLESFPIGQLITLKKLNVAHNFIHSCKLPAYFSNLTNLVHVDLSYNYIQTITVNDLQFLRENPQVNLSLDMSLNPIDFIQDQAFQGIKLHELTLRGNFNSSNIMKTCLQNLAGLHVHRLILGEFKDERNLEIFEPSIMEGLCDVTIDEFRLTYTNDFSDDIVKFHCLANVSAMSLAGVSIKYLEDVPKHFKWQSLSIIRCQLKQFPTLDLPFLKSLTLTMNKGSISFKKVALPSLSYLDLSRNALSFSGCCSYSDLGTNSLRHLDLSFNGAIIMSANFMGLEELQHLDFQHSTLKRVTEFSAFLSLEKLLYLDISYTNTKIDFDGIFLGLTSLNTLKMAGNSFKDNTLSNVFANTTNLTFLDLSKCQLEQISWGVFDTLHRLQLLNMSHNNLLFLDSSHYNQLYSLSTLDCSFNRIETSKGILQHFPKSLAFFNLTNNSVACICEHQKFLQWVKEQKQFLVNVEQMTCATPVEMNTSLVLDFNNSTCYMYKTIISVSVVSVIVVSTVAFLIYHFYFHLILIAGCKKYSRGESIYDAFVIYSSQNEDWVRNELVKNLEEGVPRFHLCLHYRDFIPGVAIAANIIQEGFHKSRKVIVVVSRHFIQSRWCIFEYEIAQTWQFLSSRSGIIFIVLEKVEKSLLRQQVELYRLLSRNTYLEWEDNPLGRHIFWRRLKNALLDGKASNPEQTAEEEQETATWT

[19] = target: T1, Toll-like receptor 4 (Mus musculus); assay: Inhibition of LPS-induced TLR4 activation in mouse RAW264.7 cells assessed as decrease in phosphorylated NF-kappaB nuclear translocation at 10 uM pretreated for 1 hr followed by LPS treatment for 30 mins by CLSM analysis; assay type: cell-based; settings: time 90.0 min
Acinetobacter baumannii [20] = assay: Antibacterial activity against carbapenem-resistant Acinetobacter baumannii 1915 incubated for 24 hrs by CLSI based broth microdilution method; assay type: functional, organism-based
Acinetobacter baumannii [21] = assay: Antibacterial activity against carbapenem-resistant Acinetobacter baumannii-induced sepsis shock in ICR mouse model assessed as bacterial growth inhibition in liver at 1 mg/kg, ip pretreated with compound for 1 hr followed by bacterial infection measured after 16 hrs relative to control; assay type: functional; settings: time 17 hrs
Mus musculus [22] = assay: Antiseptic activity in sepsis shock ICR mouse model infected with carbapenem-resistant Acinetobacter baumannii assessed as decrease in BUN level in serum at 1 mg/kg, ip pretreated with compound for 1 hr followed by bacterial infection measured after 16 hrs relative to control; assay type: functional; set-up: scale not given: the % may be the effect or the level left; settings: time 17 hrs
Mus musculus [23] = assay: Antiseptic activity in sepsis shock ICR mouse model infected with carbapenem-resistant Acinetobacter baumannii assessed as reduction in bacterial count in lungs at 1 mg/kg, ip pretreated with compound for 1 hr followed by bacterial infection measured after 16 hrs relative to control; assay type: functional; set-up: scale not given: the % may be the effect or the level left; settings: time 17 hrs
Mus musculus [24] = assay: Antiseptic activity in sepsis shock ICR mouse model infected with carbapenem-resistant Acinetobacter baumannii assessed as reduction in bacterial count in kidney at 1 mg/kg, ip pre-infected with bacteria followed by compound administration 1 hr post-infection measured after 16 hrs relative to control; assay type: functional; set-up: scale not given: the % may be the effect or the level left
Mus musculus [25] = assay: Antiseptic activity in sepsis shock ICR mouse model infected with carbapenem-resistant Acinetobacter baumannii assessed as reduction in serum IL-6 level at 1 mg/kg, ip pre-infected with bacteria followed by compound administration 3 hrs post-infection measured after 16 hrs relative to control; assay type: functional; set-up: scale not given: the % may be the effect or the level left

Substance | MIC (Staphylococcus aureus [1]) [µM] | MIC (Pseudomonas aeruginosa [2]) [µM] | MIC (Escherichia coli [3]) [µM] | MIC (Escherichia coli [4]) [µM] | Activity (Escherichia coli [6]) [%] | FIC (Pseudomonas aeruginosa [7]) | MIC (Pseudomonas aeruginosa [8]) [µM] | MIC (Pseudomonas aeruginosa [9]) [µM] | FIC (Pseudomonas aeruginosa [10]) | inhibition at 5 µM (RAW264.7 [12]) [%] | inhibition at 5 µM (RAW264.7 [13]) [%] | further results
H-GVFRLKKWIKKVIKKWGK-NH2 | 8 | 16 | 32 | 32 | ~100 | 0.125 | 128 | 2 | 0.25 | 5.7 | 44.4 | Activity (Escherichia coli [5]): inactive; Activity (Staphylococcus aureus [11]): inactive
H-GVFRLKKWLKKVKKWGK-NH2 | 8 | 8 | 32 | 32 | ~100 | 0.125 | 128 | 2 | 0.25 | 78.1 | 99 | Activity [14]: Active; Activity [15]: Active; Activity (Lipopolysaccharide (LPS) [16]): Dose-dependent-effect; Activity Similar To Ll-37; Activity (Lipopolysaccharide (LPS) [17]): 80%; inhibition [18]: 27%; inhibition [19]: Active; Activity (Acinetobacter baumannii [20]): Active; inhibition in vivo at 1 mg/kg (Acinetobacter baumannii [21]): 95.7%; Activity (Mus musculus [22]): 56.7%; Activity (Mus musculus [23]): 99%; Activity (Mus musculus [24]): 96.7%; Activity (Mus musculus [25]): 14.8%
